From patent US11644469B2, “HIF-1 and HIF-2 inhibitors” (UNIVERSITY OF SOUTHAMPTON, priority 2016, dated 2023)
Where two headings read alike, the source gives them in different places. Residues, ends and D or L forms follow the SMILES beside them.

Key:
HIF-1α (Trx-1α, 1α PASB) [1] = molecular target: T1, HIF-1α (Trx-1α, 1α PASB) (Homo sapiens, UniProt Q16665); test: Thermal shift assay, HIF-1α; format: binding; settings: 1 mM compound
T1 construct: 238-349; made in house
Procedure: (§1) The binding of the compounds to their targets was assessed by measuring changes in the melting temperature of their target proteins HIF-1α and HIF-2α (known as a thermal shift assay) and by microscale thermophoresis (MST). The data for the thermal shift assay is summarized in FIG. 1, while the binding constants (Kd) derived from MST is shown in FIG. 3. Compounds that are effective inhibitors decrease the melting temperatures of the proteins. […] The compounds may bind to HIF 1α/2α or 1β in order to disrupt the dimerization, and PASB may be the responsible domain.
(§2) Thermal shift data of thioredoxin-tagged longer constructs and PASB domains with the identified polypeptides are shown in FIG. 1. Compounds that are effective inhibitors decrease the melting temperatures of the proteins.
(§3) Thermal denaturation of HIF proteins was performed in 20 μL reactions in triplicate using a Bio-Rad CFX Connect Real-Time System. Proteins were used at either 5 μM (Trx-1α, Trx-2α and GST-1β) or 15 μM (His-tagged PASB domains) in HIF assay buffer, with 10 mM DTT and SYPRO orange dye (Life Technologies) at a final concentration of 8× (relative to 5000× stock), and supplemented with either DMSO or compound dissolved in DMSO at the stated concentrations. The reaction plate was assembled on ice, then transferred to the pre-chilled thermal cycler, held at 10° C. for 5 min (heated lid, 105° C.), then the temperature ramped to 95° C. Fluorescence was recorded at 0.5° C. increments, holding for 5 sec at each temperature. Data were plotted using GraphPad Prism 6, and melting temperatures calculated using the first derivative method in which the peak (i.e. the steepest transition between data points) represents the point at which 50% of the protein sample is denatured. Errors are quoted as the inherent error associated with the first derivative of the data, i.e. ±0.25° C. for Tm values and ±0.5° C. for ΔTm values.

HIF-1α (Trx-1α, 1α PASB) [2] = test: Thermal shift assay, HIF-1α; format: binding; settings: effective inhibitors decrease the melting temperature
Procedure: as §1, §2, §3

HIF-2α (Trx-2α, 2α PASB) [3] = molecular target: T2, HIF-2α (Trx-2α, 2α PASB) (Homo sapiens, UniProt Q99814); test: Thermal shift assay, HIF-2α; format: binding; settings: 1 mM compound
T2 construct: 240-350; made in house
Procedure: as §1, §2, §3

HIF-1β (GST-1β, 1β PASB) [4] = molecular target: T3, HIF-1β (GST-1β, 1β PASB) (Homo sapiens, UniProt P27540); test: Thermal shift assay, HIF-1β (negative control); format: binding; settings: for activity against HIF-1β in thermal shift assay: negative control protein
T3 construct: 356-474; made in house
T3 sequence (P27540 356-474): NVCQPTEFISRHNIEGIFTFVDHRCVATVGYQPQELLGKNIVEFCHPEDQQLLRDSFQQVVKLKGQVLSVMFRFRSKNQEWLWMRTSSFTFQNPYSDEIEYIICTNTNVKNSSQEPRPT
Procedure: as §1, §2, §3

HIF-2α (Trx-2α, 2α PASB) [5] = test: Thermal shift assay, HIF-2α; format: binding; settings: effective inhibitors decrease the melting temperature
Procedure: as §1, §2, §3

HIF-1β (GST-1β, 1β PASB) [6] = test: Thermal shift assay, HIF-1β (negative control); format: binding; settings: 1 mM compound; GST-1β 5 μM
Procedure: as §1, §2, §3

MCF-7 cells = test: Cell permeability and localisation by fluorescence microscopy; format: cell-based; settings: 24 hr
Procedure: FIGS. 10A-D and 10A′-D′ show cell permeability tested using fluorescently labeled-CRVIIF (SEQ ID NO 4) in MCF-7 cells.
For initial compound permeability experiments, 1.5 mL MCF-7 cells were plated on 3 cm petri dishes (200,000 cells/plate) and grown at 37° C. After 24 hr, cells were incubated with fresh media containing the stated concentrations of fluor-CRVIIF (SEQ ID NO 4) (0.5% DMSO) or 66 μM CP-61 control compound (0.66% DMSO) for a further 24 hr. Cells were washed twice with PBS and imaged live in plates. For co-localisation experiments, an 8-well Lab-Tek Chamber Slide (Nunc) was treated with collagen prior to plating 25,000 MCF-7 cells/well. After 24 hr, cells were dosed with 300 μL fresh media containing the stated concentrations of fluor-CRVIIF (SEQ ID NO 4) (0.5% DMSO) and/or 5 μg/mL FM 4-64FX Membrane Stain (Life Technologies) and incubated for a further 24 hr. Cells were washed with 2×300 μL PBS, fixed with 150 μL 10% formalin in PBS for 5-10 min, then washed again with PBS. Growth chambers were removed and nuclear staining was achieved using Vectashield Mounting Medium with DAPI (Vector Laboratories) prior to sealing the slide with a coverslip. Cells were imaged using a fluorescent microscope.

[7] = 1 mM compound, His-tagged PASB domain 15 μM
[8] = His-tagged PASB domain 15 μM, read-out: ΔTm 1α PASB
[9] = Trx-1α 5 μM, read-out: ΔTm Trx-1α
[10] = His-tagged PASB domain 15 μM, read-out: ΔTm 2α PASB
[11] = Trx-2α 5 μM, read-out: ΔTm Trx-2α

Molecule	ΔTm 1α PASB (HIF-1α (Trx-1α, 1α PASB) [1]; His-tagged PASB domain 15 μM)	ΔTm Trx-1α (HIF-1α (Trx-1α, 1α PASB) [1]; Trx-1α 5 μM)	ΔTm 2α PASB (HIF-2α (Trx-2α, 2α PASB) [3]; His-tagged PASB domain 15 μM)	ΔTm Trx-2α (HIF-2α (Trx-2α, 2α PASB) [3]; Trx-2α 5 μM)	ΔTm 1β PASB (HIF-1β (GST-1β, 1β PASB) [4]; [7])	ΔTm at 1000 µM (HIF-1α (Trx-1α, 1α PASB) [1]; [8])	ΔTm at 1000 µM (HIF-1α (Trx-1α, 1α PASB) [1]; [9])	ΔTm at 1000 µM (HIF-2α (Trx-2α, 2α PASB) [3]; [10])	ΔTm at 1000 µM (HIF-2α (Trx-2α, 2α PASB) [3]; [11])	ΔTm at 1000 µM (HIF-1β (GST-1β, 1β PASB) [4]; [7])	activity against HIF-1β in thermal shift assay (HIF-1β (GST-1β, 1β PASB) [4])	activity against HIF-1α in thermal shift assay (HIF-1α (Trx-1α, 1α PASB) [2])	activity against HIF-2α in thermal shift assay (HIF-2α (Trx-2α, 2α PASB) [5])	ΔTm GST-1β (HIF-1β (GST-1β, 1β PASB) [6])	cell permeability (MCF-7 cells)
CC[C@H](C)[C@@H]1NC(=O)[C@H](C(C)C)NC(=O)[C@H](CCCNC(=N)N)NC(=O)[C@H](CS)NC(=O)[C@H](Cc2ccccc2)NC(=O)[C@H]([C@@H](C)CC)NC1=O [CRVIIF, cyclo-CRVIIF] (cyclo(CRVIIF); ring closure inferred)	–	–	–	–	–	-1.5 °C	-1 °C	-2.5 °C	-2 °C	-0.5 °C	not against HIF-1β	show activity	show activity	−0.5 °C	–
fluor-CRVIIF: fluorescently labelled cyclo-CRVIIF; FITC-maleimide bound to the cysteine (cyclo(C(FITC‑maleimide)RVIIF); listed as Homo sapiens)	–	–	–	–	–	–	–	–	–	–	–	–	–	–	appears to cross cell membrane

Continued, in another order:

ΔTm 1α PASB (HIF-1α (Trx-1α, 1α PASB) [1]; His-tagged PASB domain 15 μM)	ΔTm Trx-1α (HIF-1α (Trx-1α, 1α PASB) [1]; Trx-1α 5 μM)	ΔTm 2α PASB (HIF-2α (Trx-2α, 2α PASB) [3]; His-tagged PASB domain 15 μM)	ΔTm Trx-2α (HIF-2α (Trx-2α, 2α PASB) [3]; Trx-2α 5 μM)	ΔTm 1β PASB (HIF-1β (GST-1β, 1β PASB) [4]; [7])	ΔTm at 1000 µM (HIF-1α (Trx-1α, 1α PASB) [1]; [8])	ΔTm at 1000 µM (HIF-1α (Trx-1α, 1α PASB) [1]; [9])	ΔTm at 1000 µM (HIF-2α (Trx-2α, 2α PASB) [3]; [10])	ΔTm at 1000 µM (HIF-2α (Trx-2α, 2α PASB) [3]; [11])	ΔTm at 1000 µM (HIF-1β (GST-1β, 1β PASB) [4]; [7])	activity against HIF-1β in thermal shift assay (HIF-1β (GST-1β, 1β PASB) [4])	Molecule	activity against HIF-1α in thermal shift assay (HIF-1α (Trx-1α, 1α PASB) [2])	activity against HIF-2α in thermal shift assay (HIF-2α (Trx-2α, 2α PASB) [5])	ΔTm GST-1β (HIF-1β (GST-1β, 1β PASB) [6])	cell permeability (MCF-7 cells)
−0.5 °C	−2.5 °C	−2.5 °C	−2 °C	−0.5 °C	–	–	–	–	–	–	SGWEMIQRR (cyclic; listed as Homo sapiens)	only active against HIF-1α	–	–	–
–	–	–	–	–	-1 °C	-1.5 °C	-2.5 °C	-2.5 °C	-0.5 °C	not against HIF-1β	CC[C@H](C)[C@@H]1NC(=O)[C@H](CC(C)C)NC(=O)[C@H](CCCCN)NC(=O)[C@H](CS)NC(=O)[C@H](Cc2ccccc2)NC(=O)[C@H]([C@@H](C)CC)NC1=O [CKLIIF] (cyclo(CKLIIF); ring closure inferred)	show activity	show activity	–	–
–	–	–	–	–	-2 °C	0.5 °C	-4 °C	-4 °C	-1 °C	not against HIF-1β	CC[C@H](C)[C@@H]1NC(=O)[C@H](CC(C)C)NC(=O)[C@H](CC(C)C)NC(=O)[C@H](CCCNC(=N)N)NC(=O)[C@H](CS)NC(=O)[C@H](Cc2ccccc2)NC1=O [CRLLIF, cyclo-CRLLIF] (cyclo(CRLLIF); ring closure inferred)	show activity	show activity	–	–
